Measurements reported in patent publication US20240165097A1, “PHARMACEUTICAL COMPOSITION FOR THE TREATMENT OF ALZHEIMER'S DISEASE OR DEMENTIA” (Heptares Therapeutics Limited, priority 2021, published 2024).
Marks after values point to notes of the source that are not given here.

Tested on: patients with mild-to-moderate AD
Test: Example D: safety and tolerability, adjunctive to donepezil 10 mg per day, 4 weeks
Type: in vivo, human
Conditions: for Abdominal pain incidence / Accidental overdose incidence / Decreased lymphocyte count incidence / Decreased white blood cell count incidence / Diarrhoea incidence / Fatigue incidence / Headache incidence / Hyperhidrosis incidence / Lymphopenia incidence / Nausea incidence / Number of TEAEs / SAE incidence / TEAE Severity: Mild / TEAE Severity: Moderate / TEAE Severity: Severe / TEAE incidence / TEAE leading to discontinuation incidence / Treatment-related TEAE incidence / Urinary tract infection incidence / Viral upper respiratory tract infection incidence: randomised dose; for TEAE incidence during maintenance (Days 16-28) / TEAE incidence during titration (Days 1-15): Day 16 dose received
Procedure: The study was an outpatient study conducted across 18 centres in Poland, Czech Republic, Spain, and Slovakia (NCT03456349, registered at clinicaltrials.gov). Patients were assessed for eligibility during a 42-day screening period and randomised equally to either placebo or a HTL0018318 target dose of 5 mg, 15 mg, or 25 mg per day (FIG. 5A). HTL0018318 was titrated to the target dose during a 2-week titration period (FIG. 5B); investigators could maintain or reduce the dose to limit tolerability/safety issues throughout this period. The study was conducted in accordance with the principles of the Declaration of Helsinki, the International Council for Harmonisation good clinical practice guidelines, and according to all appropriate country regulatory requirements. Relevant independent ethics committees provided approval, and all patients (or their caregiver) provided written informed consent.
The primary endpoint of this study was to evaluate the safety and tolerability of HTL0018318. Safety and tolerability were assessed via the incidence and severity of treatment-emergent adverse events (TEAEs), and via evaluation during study visits of vital signs (including blood pressure [BP] and heart rate [HR]), electrocardiogram (ECG) measurements, physical and neurological examinations, laboratory haematology, clinical chemistry and urinalysis.
Safety was the primary endpoint and was assessed at all visits (screening, baseline, Day 1, Day 6±1, Day 11±1, Day 16±1, Day 28±1, and Day 35±2 [follow-up]) based on: spontaneously reported treatment-emergent adverse events (TEAEs); scheduled physical and neurological examinations; vital sign measurements (body temperature, heart rate [HR], systolic and diastolic BP [SBP and DBP]); 12-lead ECG recordings; and clinical laboratory safety panel. The C-SSRS was administered at baseline and on Day 28±1. TEAEs were coded using the Medical Dictionary for Regulatory Activities (MedDRA) Version 20.
All safety analyses used the safety set (SAF; randomised dose). The SAF (randomised dose) included all randomised patients who received at least one dose of the study drug; treatment group assignment was based on the initial randomised dose. All efficacy analyses were considered exploratory and used the full analysis set (FAS). The FAS included all randomised patients with at least one post-baseline efficacy measurement; treatment group assignment was based on the initial randomised dose. All summaries and analyses of PK data used the pharmacokinetic set (PKS). The PKS included all randomised patients with valid PK assessments; treatment group assignment was based on actual dose received.
BP and HR were measured in triplicate, both supine and standing, in the same arm throughout the study. Standing BP and HR were measured after 3 minutes of standing, and supine BP and HR after 5 minutes of lying down. Measurements were repeated if clinically significant or machine/equipment errors occurred. Out-of-range BP or HR measurements were repeated at the investigator's discretion. Any confirmed clinically significant vital sign measurements were recorded as AEs. If the following measurements were obtained, instructions for additional monitoring, or stopping dosing were to be followed: • SBP>170 mmHg; DBP>110 mmHg • SBP or DBP increase >30% from Day 1 pre-dose level.
Statistical evaluation was performed using Statistical analysis software (SAS®, SAS Institute, Cary, NC). Changes from baseline in vital signs were analysed using a mixed model for repeated measures with fixed effects for baseline, treatment, time-point and treatment by time-point interaction. The exploratory PD endpoints were analysed using an analysis of covariance with change from baseline as the dependent variable, and baseline and treatment as covariates. The least square means (LSM) for each dose (and difference from placebo) are presented with the 90% CI, P-value, and ES. […]

[1] = two highest doses (15 and 25 mg)

With `CCOC(=O)N1C2CCC1CC(N1CCC3(CC1)CNC(=O)C3)C2` (stereo not shown) [HTL0018318, ethyl 3-(3-oxo-2,8-diazaspiro[4.5]dec-8-yl)-8-azabicyclo[3.2.1]octane-8-carboxylate] the Abdominal pain incidence (5 mg (n = 15)) was 1 (6.7) n (%), the Accidental overdose incidence (5 mg (n = 15)) was 1 (6.7) n (%) and the “Decreased lymphocyte count incidence” value (5 mg (n = 15)) was 0 n (%). For the same compound, the “Decreased white blood cell count incidence” value (5 mg (n = 15)) was 0 n (%), the Diarrhoea incidence (5 mg (n = 15)) was 1 (6.7) n (%) and the Fatigue incidence (5 mg (n = 15)) was 0 n (%). The Headache incidence (5 mg (n = 15)) was 1 (6.7) n (%), the Hyperhidrosis incidence (5 mg (n = 15)) was 0 n (%) and the Lymphopenia incidence (5 mg (n = 15)) was 0 n (%). The Nausea incidence (5 mg (n = 15)) was 1 (6.7) n (%), the “Number of TEAEs” value (5 mg (n = 15)) was 18 n and the SAE incidence (5 mg (n = 15)) was 0 n (%). The “TEAE Severity: Mild” value (5 mg (n = 15)) was 7 (46.7) n (%), the “TEAE Severity: Moderate” value (5 mg (n = 15)) was 1 (6.7) n (%) and the “TEAE Severity: Severe” value (5 mg (n = 15)) was 1 (6.7) n (%). For the same compound, the TEAE incidence (5 mg (n = 15)) was 8 (53.3) n (%), the “TEAE leading to discontinuation incidence” value (“TEAE leading” for short) (5 mg (n = 15)) was 1 (6.7)^d n (%) and the “Treatment-related TEAE incidence” value (5 mg (n = 15)) was 4 (26.7) n (%). For the same compound, the “Urinary tract infection incidence” value (5 mg (n = 15)) was 1 (6.7) n (%), the “Viral upper respiratory tract infection incidence” value (5 mg (n = 15)) was 1 (6.7) n (%) and the “TEAE incidence during maintenance (Days 16-28)” value (5 mg (n = 17)) was 4 (23.5) n (%). The “TEAE incidence during titration (Days 1-15)” value (5 mg (n = 17)) was 8 (47.1) n (%), the “TEAE incidence during maintenance (Days 16-28)” value (10 mg (n = 1)) was 0 n (%) and the “TEAE incidence during titration (Days 1-15)” value (10 mg (n = 1)) was 1 (100) n (%). For the same compound, the Abdominal pain incidence (15 mg (n = 14)) was 0 n (%), the Accidental overdose incidence (15 mg (n = 14)) was 1 (7.1) n (%) and the “Decreased lymphocyte count incidence” value (15 mg (n = 14)) was 1 (7.1) n (%). For the same compound, the “Decreased white blood cell count incidence” value (15 mg (n = 14)) was 1 (7.1) n (%), the Diarrhoea incidence (15 mg (n = 14)) was 0 n (%) and the Fatigue incidence (15 mg (n = 14)) was 0 n (%). The Headache incidence (15 mg (n = 14)) was 3 (21.4) n (%), the Hyperhidrosis incidence (15 mg (n = 14)) was 2 (14.3) n (%) and the Lymphopenia incidence (15 mg (n = 14)) was 1 (7.1) n (%). For the same compound, the Nausea incidence (15 mg (n = 14)) was 1 (7.1) n (%), the “Number of TEAEs” value (15 mg (n = 14)) was 16 n and the SAE incidence (15 mg (n = 14)) was 0 n (%). The “TEAE Severity: Mild” value (15 mg (n = 14)) was 8 (57.1) n (%), the “TEAE Severity: Moderate” value (15 mg (n = 14)) was 1 (7.1) n (%) and the “TEAE Severity: Severe” value (15 mg (n = 14)) was 0 n (%). The TEAE incidence (15 mg (n = 14)) was 8 (57.1) n (%), the “TEAE leading” value (15 mg (n = 14)) was 1 (7.1)^e n (%) and the “Treatment-related TEAE incidence” value (15 mg (n = 14)) was 7 (50.0) n (%). The “Urinary tract infection incidence” value (15 mg (n = 14)) was 0 n (%), the “Viral upper respiratory tract infection incidence” value (15 mg (n = 14)) was 0 n (%) and the “TEAE incidence during maintenance (Days 16-28)” value (15 mg (n = 16)) was 2 (12.5) n (%). The “TEAE incidence during titration (Days 1-15)” value (15 mg (n = 16)) was 8 (50.0) n (%), the “TEAE incidence during maintenance (Days 16-28)” value (25 mg (n = 11)) was 2 (18.2) n (%) and the “TEAE incidence during titration (Days 1-15)” value (25 mg (n = 11)) was 6 (54.5) n (%). The Abdominal pain incidence (25 mg (n = 16)) was 0 n (%), the Accidental overdose incidence (25 mg (n = 16)) was 0 n (%) and the “Decreased lymphocyte count incidence” value (25 mg (n = 16)) was 1 (6.3) n (%). The “Decreased white blood cell count incidence” value (25 mg (n = 16)) was 1 (6.3) n (%), the Diarrhoea incidence (25 mg (n = 16)) was 1 (6.3) n (%) and the Fatigue incidence (25 mg (n = 16)) was 2 (12.5) n (%). For the same compound, the Headache incidence (25 mg (n = 16)) was 3 (18.8) n (%), the Hyperhidrosis incidence (25 mg (n = 16)) was 0 n (%) and the Lymphopenia incidence (25 mg (n = 16)) was 1 (6.3) n (%). For the same compound, the Nausea incidence (25 mg (n = 16)) was 0 n (%), the “Number of TEAEs” value (25 mg (n = 16)) was 26 n and the SAE incidence (25 mg (n = 16)) was 0 n (%). For the same compound, the “TEAE Severity: Mild” value (25 mg (n = 16)) was 9 (56.3) n (%), the “TEAE Severity: Moderate” value (25 mg (n = 16)) was 4 (25.0) n (%) and the “TEAE Severity: Severe” value (25 mg (n = 16)) was 0 n (%). The TEAE incidence (25 mg (n = 16)) was 11 (68.8) n (%), the “TEAE leading” value (25 mg (n = 16)) was 0 n (%) and the “Treatment-related TEAE incidence” value (25 mg (n = 16)) was 5 (31.3) n (%). For the same compound, the “Urinary tract infection incidence” value (25 mg (n = 16)) was 1 (6.3) n (%), the “Viral upper respiratory tract infection incidence” value (25 mg (n = 16)) was 1 (6.3) n (%) and the “serious TEAEs or deaths” value (5, 15, 25 mg) was “no serious TEAEs or deaths”. For the same compound, the tolerability (5-25 mg adjunctive to donepezil) was “generally well tolerated”, the “orthostatic BP or HR” value (across doses) was “no significant changes” and the “physical or neurological examination findings, laboratory abnormalities, risk of suicide” value (across doses) was “no clinically significant physical or neurological examination findings, or laboratory abnormalities”. For the same compound, the “maximum mean elevations in SBP and DBP above placebo” value (all doses, at Tmax, Days 1, 6, 11) was 5-10 mmHg, the “patients who discontinued treatment due to TEAEs” value (one on 5 mg, one on 15 mg) was “Two” and the “incidences of cholinergic TEAEs (abdominal pain, diarrhoea, fatigue, nausea)” value [1] was 0-13%. The “maximum incidences of cholinergic TEAEs” value [1] was 7-13%.
